For 17 compounds, IC50 results are on record in patent publication US20220016115A1, “USP19 INHIBITORS FOR USE IN THERAPY” (ALMAC DISCOVERY LIMITED, priority 2018, published 2022).

For the test, the target named is T1, USP19 (Homo sapiens, UniProt O94966).
T1 sequence (O94966 1-1318): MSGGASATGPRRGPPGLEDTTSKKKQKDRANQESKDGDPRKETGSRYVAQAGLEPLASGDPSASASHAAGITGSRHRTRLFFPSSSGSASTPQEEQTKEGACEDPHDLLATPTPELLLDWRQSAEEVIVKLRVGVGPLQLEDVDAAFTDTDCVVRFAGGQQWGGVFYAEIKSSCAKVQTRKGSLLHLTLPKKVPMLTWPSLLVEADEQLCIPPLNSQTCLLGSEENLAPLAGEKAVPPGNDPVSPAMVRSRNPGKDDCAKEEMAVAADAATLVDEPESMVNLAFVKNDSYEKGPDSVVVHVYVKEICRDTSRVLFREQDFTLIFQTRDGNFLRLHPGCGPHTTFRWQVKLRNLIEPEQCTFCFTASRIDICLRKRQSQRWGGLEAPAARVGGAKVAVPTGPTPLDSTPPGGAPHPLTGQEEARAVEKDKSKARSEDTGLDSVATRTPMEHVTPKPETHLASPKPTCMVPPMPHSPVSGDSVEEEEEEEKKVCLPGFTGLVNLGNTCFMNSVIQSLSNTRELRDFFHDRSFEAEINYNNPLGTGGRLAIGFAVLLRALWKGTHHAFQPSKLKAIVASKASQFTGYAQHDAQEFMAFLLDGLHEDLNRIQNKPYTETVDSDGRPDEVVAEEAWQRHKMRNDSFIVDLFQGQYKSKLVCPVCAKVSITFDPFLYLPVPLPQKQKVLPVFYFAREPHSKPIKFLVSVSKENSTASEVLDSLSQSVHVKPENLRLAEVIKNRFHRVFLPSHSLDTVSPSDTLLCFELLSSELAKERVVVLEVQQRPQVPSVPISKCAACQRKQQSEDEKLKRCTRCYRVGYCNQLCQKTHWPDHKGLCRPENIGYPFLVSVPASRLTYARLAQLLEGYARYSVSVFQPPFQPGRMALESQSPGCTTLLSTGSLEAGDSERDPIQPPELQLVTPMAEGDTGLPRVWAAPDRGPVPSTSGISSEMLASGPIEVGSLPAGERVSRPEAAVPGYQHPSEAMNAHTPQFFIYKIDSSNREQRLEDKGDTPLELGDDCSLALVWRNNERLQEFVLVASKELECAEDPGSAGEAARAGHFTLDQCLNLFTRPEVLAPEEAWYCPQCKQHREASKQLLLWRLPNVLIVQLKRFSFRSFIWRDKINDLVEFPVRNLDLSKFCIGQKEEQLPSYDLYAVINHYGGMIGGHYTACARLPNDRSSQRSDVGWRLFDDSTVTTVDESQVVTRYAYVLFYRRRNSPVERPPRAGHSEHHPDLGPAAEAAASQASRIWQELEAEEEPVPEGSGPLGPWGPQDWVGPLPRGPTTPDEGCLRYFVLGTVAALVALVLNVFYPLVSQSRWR
The test can be described thus: USP19 fluorescence polarisation (FP) homogeneous assay. To be noted: Ubiquitin-Lys-TAMRA substrate, full-length USP19 2.5 nM, average of at least two duplicate experiments. Also on record: Full-length USP19 was purchased from Boston Biochem (E-576); purchased Boston Biochem E-576. In kind it is biochemical. The method, then:
Unless otherwise stated, all other reagents were purchased from Sigma. Enzymatic reactions were conducted in black flat bottom polystyrene 384-well plates (Nunc) and 30 μL total volume. […] Inhibitors were stored as 10 mM DMSO stocks in an inert environment (low humidity, dark, low oxygen, room temperature) using the Storage Pod System and serial dilutions were prepared in buffer just prior to the assay (from 200 μM to 2 μM, 8-18 data point curve). Following incubation at RT for 30 min, the enzymatic reactions were initiated by dispensing the Ub substrate (500 nM, 10 μL). FP was measured every 15 min over a period of 90 min (within the linear range of the assay) using a Synergy 4 plate reader (BioTek) exciting at 530 nm and measuring the amount of parallel and perpendicular light at 575 nm. The FP signal was subsequently normalised to the no compound control.

Where only a bound is given, the exact number is not on record here.

For the compound `C[C@H](CC1CCCCC1)C(=O)N1CC[C@@](O)(Cn2cc(C(=O)N3CCNCC3)c(C3CC3)cc2=O)C2(CCCC2)C1` [Example 233, 1-(((S)-7-((R)-3-Cyclohexyl-2-methylpropanoyl)-10-hydroxy-7-azaspiro[4.5]decan-10-yl)methyl)-4-cyclopropyl-5-(piperazine-1-carbonyl)pyridin-2(1H)-one], the IC50 is below 500 nM.

Consider `O=C(c1cn(C[C@]2(O)CCN(C(=O)[C@H](CO)CC(F)(F)F)CC23CCCC3)c(=O)cc1-c1ccccc1)N1CCNCC1` [Example 249, 1-(((S)-10-Hydroxy-7-((S)-4,4,4-trifluoro-2-(hydroxymethyl)butanoyl)-7-azaspiro[4.5]decan-10-yl)methyl)-4-phenyl-5-(piperazine-1-carbonyl)pyridin-2(1H)-one], for which the IC50 was below 500 nM.

Take `C[C@H](CC1CCC1)C(=O)N1CC[C@@](O)(Cn2cc(C(=O)N3CCNCC3)c(-c3ccccc3F)cc2=O)C(C)(C)C1` [Example 236, 1-(((S)-1-((R)-3-Cyclobutyl-2-methylpropanoyl)-4-hydroxy-3,3-dimethylpiperidin-4-yl)methyl)-4-(2-fluorophenyl)-5-(piperazine-1-carbonyl)pyridin-2(1 H)-one]: the IC50 is below 500 nM. The figure for `C[C@H](CC(F)(F)F)C(=O)N1CC[C@@](O)(Cn2cc(C(=O)N(C)C)c(-c3ccccc3)cc2=O)C2(CCCC2)C1` [Example 216, 1-(((S)-10-Hydroxy-7-((R)-4,4,4-trifluoro-2-methylbutanoyl)-7-azaspiro[4.5]decan-10-yl)methyl)-N,N-dimethyl-6-oxo-4-phenyl-1,6-dihydropyridine-3-carboxamide] is below 500 nM; for `C[C@H](CC1CCCCC1)C(=O)N1CC[C@@](O)(Cn2cc(C(=O)N3CCCC3)c(-c3ccccc3)cc2=O)C(C)(C)C1` [Example 123, 1-(((S)-1-((R)-3-Cyclohexyl-2-methylpropanoyl)-4-hydroxy-3,3-dimethylpiperidin-4-yl)methyl)-4-phenyl-5-(pyrrolidine-1-carbonyl)pyridin-2(1H)-one] it is below 500 nM.

In the case of `C[C@H](CC(C)(F)F)C(=O)N1CC[C@@](O)(Cn2cnc(-c3ccccc3)cc2=O)C2(CCCC2)C1` [Example 258, 3-(((S)-7-((R)-4,4-Difluoro-2-methylpentanoyl)-10-hydroxy-7-azaspiro[4.5]decan-10-yl)methyl)-6-phenylpyrimidin-4(3H)-one], the IC50 is below 500 nM. The figure for `CC(C)CC(C)C(=O)N1CCC(O)(Cn2cc(C(=O)N(C)C)c(-c3ccccc3)cc2=O)C2(CCCC2)C1` (centres unmarked) [Example 197, 1-((7-(2,4-Dimethylpentanoyl)-10-hydroxy-7-azaspiro[4.5]decan-10-yl)methyl)-N,N-dimethyl-6-oxo-4-phenyl-1,6-dihydropyridine-3-carboxamide] is below 500 nM; for `C[C@H](CC1CCC1)C(=O)N1CC[C@@](O)(Cn2cc(C(=O)N3CCNCC3)c(-c3ccccc3F)cc2=O)C2(CCCC2)C1` [Example 224, 1-(((S)-7-((R)-3-Cyclobutyl-2-methylpropanoyl)-10-hydroxy-7-azaspiro[4.5]decan-10-yl)methyl)-4-(2-fluorophenyl)-5-(piperazine-1-carbonyl)pyridin-2(1 H)-one] it is below 500 nM; for `C[C@H](CC1CCCCC1)C(=O)N1CCC(O)(Cn2cc(C(=O)N(C)C)c(-c3ccc(CO)cc3)cc2=O)C2(CCCC2)C1` (stereo partly drawn) [Example 162, 1-((7-((R)-3-Cyclohexyl-2-methylpropanoyl)-10-hydroxy-7-azaspiro[4.5]decan-10-yl)methyl)-4-(4-(hydroxymethyl)phenyl)-N,N-dimethyl-6-oxo-1,6-dihydropyridine-3-carboxamide] it is below 500 nM.

With `CCOC(=O)c1cn(C[C@]2(O)CCN(C(=O)[C@H](C)CC3CCCCC3)CC23CCCC3)c(=O)cc1-c1ccccc1` [Example 252, Ethyl 1-(((S)-7-((R)-3-cyclohexyl-2-methylpropanoyl)-10-hydroxy-7-azaspiro[4.5]decan-10-yl)methyl)-6-oxo-4-phenyl-1,6-dihydropyridine-3-carboxylate], the IC50 is below 500 nM. The same measure for `C[C@H](CC1CCCCC1)C(=O)N1CC[C@@](O)(Cn2cc(C(=O)N3CCNC[C@H]3CO)c(-c3ccccc3)cc2=O)C(C)(C)C1` [Example 208, 1-(((S)-1-((R)-3-Cyclohexyl-2-methylpropanoyl)-4-hydroxy-3,3-dimethylpiperidin-4-yl)methyl)-5-((S)-2-(hydroxymethyl)piperazine-1-carbonyl)-4-phenylpyridin-2(1H)-one]: below 500 nM. On to `C[C@H](CC1CCCCC1)C(=O)N1CC[C@@](O)(Cn2cc(C(=O)N(C)C)c(-c3ccccc3F)cc2=O)C(C)(C)C1` [Example 205, 1-(((S)-1-((R)-3-Cyclohexyl-2-methylpropanoyl)-4-hydroxy-3,3-dimethylpiperidin-4-yl)methyl)-4-(2-fluorophenyl)-N,N-dimethyl-6-oxo-1,6-dihydropyridine-3-carboxamide], for which the IC50 was below 500 nM. The same measure for `C[C@H](CC1CCCCC1)C(=O)N1CCC(O)(Cn2cc(C(=O)N(C)C)c(-c3ccsc3)cc2=O)C2(CCCC2)C1` (stereo partly drawn) [Example 155, 1-((7-((R)-3-Cyclohexyl-2-methylpropanoyl)-10-hydroxy-7-azaspiro[4.5]decan-10-yl)methyl)-N,N-dimethyl-6-oxo-4-(thiophen-3-yl)-1,6-dihydropyridine-3-carboxamide]: below 500 nM. The same measure for `CC(=O)N1CCN(C(=O)c2cn(CC3(O)CCN(C(=O)[C@H](C)CC4CCCCC4)CC3(C)C)c(=O)cc2-c2ccccc2)CC1` (some centres unmarked) [Example 169]: below 500 nM. In the case of `CC(n1cnc(-c2ccccc2)cc1=O)C1(O)CCN(C(=O)C[C@@H](C)c2ccccc2)CC1` (mixture of isomers) [Example 47, 3-((R)-1-(4-Hydroxy-1-((R)-3-phenylbutanoyl)piperidin-4-yl)ethyl)-6-phenylpyrimidin-4(3H)-one and 3-((S)-1-(4-hydroxy-1-((R)-3-phenylbutanoyl)piperidin-4-yl)ethyl)-6-phenylpyrimidin-4(3H)-one], the IC50 is 50000 to 250000 nM. The same measure for `CC(C)N(C)C(=O)c1cn(CC2(O)CCN(C(=O)[C@H](C)CC3CCCCC3)CC2(C)C)c(=O)cc1-c1ccccc1` (mixture of isomers) [Example 73, 1-(((R)-1-((R)-3-Cyclohexyl-2-methylpropanoyl)-4-hydroxy-3,3-dimethylpiperidin-4-yl)methyl)-N-isopropyl-N-methyl-6-oxo-4-phenyl-1,6-dihydropyridine-3-carboxamide and 1-(((S)-1-((R)-3-Cyclohexyl-2-methylpropanoyl)-4-hydroxy-3,3-dimethylpiperidin-4-yl)methyl)-N-isopropyl-N-methyl-6-oxo-4-phenyl-1,6-dihydropyridine-3-carboxamide]: below 500 nM; for `C[C@H](CC1CCCCC1)C(=O)N1CCC(O)(Cn2cnc(-c3ccccc3F)cc2=O)C2(CCC2)C1` (mixture of isomers) [Example 51, 3-(((R)-6-((R)-3-Cyclohexyl-2-methylpropanoyl)-9-hydroxy-6-azaspiro[3.5]nonan-9-yl)methyl)-6-(2-fluorophenyl)pyrimidin-4(3H)-one and 3-(((S)-6-((R)-3-Cyclohexyl-2-methylpropanoyl)-9-hydroxy-6-azaspiro[3.5]nonan-9-yl)methyl)-6-(2-fluorophenyl)pyrimidin-4(3H)-one]: 500 to 5000 nM.
